Results on five compounds are retold here after patent US8247460B2, “Method of treatment for muscular dystrophy” (priority 2006, dated 2012).

Like-named read-outs stand apart in the source and are kept apart here.

Assay [1] concerns alpha-SG-null C57BL/6 mouse. Format: in vivo. As to the method:
FIG. 1: alpha-sarcoglycan (SG)-null C57BL/6 mice were treated for 30 days with the indicated drugs, or combinations of drugs incorporated into the diet as described in the Methods. Serum creatin kinase (CK) concentrations were measured from mouse blood samples obtained by tail vein withdrawal using the indirect colorimetric assay (Roche Diagnostics), following standard procedures.
(§1) The alpha-SG-null C57BL/6 mouse, one of the most severe models of muscular dystrophy was used. In some experiments wild type (wt) C57BL/6 mouse were used as internal further control.
(§2) In the in vivo experiments the drugs were administered daily in the diet to three months old animals for 30 days. The dose of aspirin was 80 mg/kg, the dose of ISMN was 35 mg/kg and that of ISDN was 10 mg/kg, while the dose of ibuprofen was 15 mg/kg. Prednisolone was used as reference drug at the dose of 2 mg/kg. When combinations of drugs were used, the drugs were both incorporated in the same diet. Control animals received the same diet without any drug incorporation.
Quantitative determination of creatine kinase activity in serum of control and drug treated-animals was measured using creatine kinase reagent (Randox, CK110), according to the manufacturer's instructions. Blood was collected from tail vein and serum obtained after centrifugation at 13000 rpm for 10 minutes was stored at −80° C. before measurements.

The subject of assay [2] is alpha-SG-null C57BL/6 mouse. As to the kind of experiment: Histology: number of inflammatory infiltrates in muscle sections. In kind it is in vivo. Conditions: alpha-SG-null mice, drugs daily in the diet, 30 days of treatment, n = 4. As to the method:
FIG. 3: alpha-SG-null C57BL/6 mice were treated for 30 days with the indicated drugs, or combinations of drugs incorporated into the diet as described in the Methods. Tibialis anterior muscles were dissected and frozen in liquid nitrogen-cooled isopentane. The number of inflammatory infiltrates was measured on Azan-Mallory-stained serial muscle sections.
as §1, §2
(§3) Diaphragm and tibialis anterior of untreated and drug-treated mice were isolated and included in Killik® frozen section medium, quickly frozen and cut into 8-μm thick sections with the muscle fibres oriented transversely using a cryostat. Sections were stained with either Hematoxylin&Eosin or Azan Mallory, to evaluate the number of inflammatory infiltrates and necrotic fibres ([…] sections per tissue), respectively.

In assay [3] the test system is alpha-SG-null C57BL/6 mouse. Put plainly: Free wheel running (voluntary running wheel activity). In kind it is in vivo. Conditions: alpha-SG-null mice, drugs daily in the diet, 30 days of treatment, n = 4. As to the method:
FIG. 2: alpha-SG-null C57BL/6 mice were treated for 30 days with the indicated drugs, or combinations of drugs incorporated into the diet as described in the Methods. Locomotor performance was measured through the Running Wheel Activity, to this end mice were housed individually in cages equipped with a Trixie running wheel. Each wheel revolution was registered through a magnetic switch, which was connected to a counter. The number of revolutions was recorded daily for 6 days. […] The results of 9 experiments ±S.E.M of Running Wheel Activity measured in wild type (wt) C57BL/6 mice are also reported.
as §1, §2
Voluntary wheel running was used as the exercise paradigm to avoid any physiological changes that may occur due to the stress of forced treadmill running. Mice were housed individually in cages equipped with a Trixie running wheel. Each wheel revolution was registered through a magnetic switch, which was connected to a counter. The number of revolutions was recorded daily for 6 days.

Assay [4] has as its system alpha-SG-null C57BL/6 mouse. Put plainly: In vivo experiments: histological, functional and biochemical alterations overall. The settings on record: alpha-SG-null mice, 30 days in the diet, vs control. The protocol:
as §1, §2
The effects of the different drugs and their combination on the number of inflammatory infiltrates, the number of necrotic fibers per section, creatine kinase activity and free wheel distance ran are shown in Table I.

In assay [5] the test system is Satellite cells from alpha-SG-null C57BL/6 mice. As to the kind of experiment: Fusion index of differentiating satellite cells. Format: cell-based, mouse. The settings on record: for Fusion index: n = 4; for Fusion index compared to control cells, in words: satellite cells, 48 and 72 h. As to the method:
FIG. 6: Satellite cells from alpha-SG-null C57BL/6 mice were isolated from 3-5 days old mice and induced to differentiate in the presence of the indicated drugs as described in the methods. Fusion index was determined at 48 and 72 h as the number of nuclei in sarcomeric myosin-expressing cells with more than 2 nuclei vs the total number of nuclei.
In the in vitro experiments, the drugs were applied to satellite cells at the concentration of 100 μM for ISMN, 50 μM for ISDN, 10 μM for ibuprofen, 50 μM for aspirin and 30 μM for prednisolone. When combinations of drugs were used, the drugs were administered at the same time.
Satellite cells were isolated from 3-5 days old mice as described previously with some modifications. In particular, after 3 days from isolation, proliferating myoblasts were harvested, counted, and plated on tissue culture plastic dishes coated with 1 mg/ml type I collagen (SIGMA, C9791). […] Preparations showing less than 90% myogenic cells were discarded. […] Growth medium contained IMDM medium supplemented with 20% Fetal Bovine Serum, 3% Chick Embryo Extract, 100 U/ml Penicillin, 100 μg/ml Streptomycin, 50 μg/ml Gentamycin. Differentiation medium contained IMDM medium supplemented with 2% Horse Serum, 100 U/ml Penicillin, 100 μg/ml Streptomycin. Fusion index was determined as the number of nuclei in sarcomeric myosin-expressing cells with more than 2 nuclei vs the total number of nuclei.
Satellite cells isolated from newborn alpha-SG-null C57BL/6 mice and plated at low density (6×10^3 cells/cm^2) were maintained for 48 h in growth medium, and then switched to the differentiating medium in the presence or absence of ISMN, ISDN, aspirin, ibuprofen, ISMN plus aspirin or ISDN plus ibuprofen.

Assay [6] deals with alpha-SG-null C57BL/6 mouse. As to the kind of experiment: Histology: number of necrotic fibres in muscle sections. Format: in vivo. Conditions: alpha-SG-null mice, drugs daily in the diet, 30 days of treatment, n = 4. The protocol:
FIG. 4: alpha-SG-null C57BL/6 mice were treated for 30 days with the indicated drugs, or combinations of drugs incorporated into the diet as described in the Methods. Diaphragm muscles were dissected, frozen in liquid nitrogen-cooled isopentane and stained with hematoxilin & eosin according to standard procedures.
as §1, §2, §3

The mark [7] stands for this setting: 48 hours of treatment in differentiating medium.
Setting [8] is: 72 hours of treatment in differentiating medium.
Where [9] appears, read: serum, alpha-SG-null mice, drugs daily in the diet, 30 days of treatment, n = 4.

Consider `O=[N+]([O-])O[C@@H]1CO[C@H]2[C@@H]1OC[C@@H]2O` [ISMN, isosorbide-mononitrate], for which the CK level in assay [1] (mouse, in vivo) is recorded as 787 ± 33 U/l. Further, the “N° of inflammatory infiltrates/sections” value in assay [2] worked out at 190.2 ± 33.2. Moreover, the Free wheel test in assay [3] came out at 0.18 ± 0.03 km/24 h. Also, the “Effect on the parameters measured (histological, functional and biochemical alterations), in words” value in assay [4] is recorded as “did not have significant effects”. Also, the figures for the Fusion index in assay [5] (setting [7]) and in assay [5] (setting [8]) were 41 ± 2.2 % and 76 ± 3.3 %, respectively. In addition, the “Fusion index compared to control cells, in words” value in assay [5] is recorded as “effective on their own”. The “N° of necrotic fibres/section” value in assay [6] is reported as 238.0 ± 27.2.
`C[C@]12C=CC(=O)C=C1CC[C@@H]1[C@@H]2[C@@H](O)C[C@@]2(C)[C@H]1CC[C@]2(O)C(=O)CO` [Prednisolone]: the CK level in assay [1] (setting [9]) amounted to 757.6 ± 37.5 U/l. Moreover, the “N° of inflammatory infiltrates/sections” value in assay [2] came out at 103.4 ± 12.0. In assay [3], the Free wheel test stood at 0.38 ± 0.1 km/24 h. In addition, the Fusion index came to 18 ± 0.9% in assay [5] (setting [7]) and 41 ± 2.0% in assay [5] (setting [8]). Further, in assay [6], the “N° of necrotic fibres/section” value is 217.3 ± 37.3.
For `CC(C)Cc1ccc(C(C)C(=O)O)cc1` (stereo not drawn) [Ibuprofen], the CK level in assay [1] (setting [9]) turned out to be 851 ± 41 U/l. Moreover, the “N° of inflammatory infiltrates/sections” value in assay [2] amounted to 116.1 ± 11.1°. In assay [3], the Free wheel test is given as 0.12 ± 0.01 km/24 h. The “Effect on the parameters measured (histological, functional and biochemical alterations), in words” value in assay [4] was “did not have significant effects”. Further, the Fusion index turned out to be 21 ± 1.2% in assay [5] (setting [7]) and 42 ± 2.3% in assay [5] (setting [8]). The “N° of necrotic fibres/section” value in assay [6] worked out at 269.0 ± 34.3.
For the compound `CC(=O)Oc1ccccc1C(=O)O` [Aspirin], in assay [1] (setting [9]), the CK level came out at 841 ± 33 U/l. Moreover, in assay [2], the “N° of inflammatory infiltrates/sections” value was 122.2 ± 17.1°. Besides, the Free wheel test in assay [3] is listed as 0.15 ± 0.02 km/24 h. Besides, the “Effect on the parameters measured (histological, functional and biochemical alterations), in words” value in assay [4] is given as “did not have significant effects”. Besides, the Fusion index is reported as 20 ± 1.9% in assay [5] (setting [7]) and 43 ± 1.7% in assay [5] (setting [8]). Also, in assay [6], the “N° of necrotic fibres/section” value came to 249.0 ± 32.1.
Regarding `O=[N+]([O-])O[C@H]1CO[C@H]2[C@@H]1OC[C@H]2O[N+](=O)[O-]` [ISDN, isosorbide dinitrate], the “Effect on the parameters measured (histological, functional and biochemical alterations), in words” value in assay [4] is given as “did not have significant effects”. In assay [5], the “Fusion index compared to control cells, in words” value is given as “effective on their own”.
